Like-named read-outs stand apart in the source and are kept apart here.
Tests used:
[1] = target: T1, Recombinant STAT3 protein (STAT3 (G127-I722)) (Homo sapiens, UniProt P40763); test: STAT3 Fluorescence Polarization (FP) Assay; format: binding; conditions: probe 5-FAM-GpYLPQTV-NH2 2 nM, 45-minute incubation
T1 construct: Recombinant STAT3 protein (STAT3 (G127-I722))
Summary of the method: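 In this competition FP format, STAT3 residues G127-I722 (25 nM) and 2 nM 5-FAM-GpYLPQTV-NH2 met test compounds for 45 min at room temperature. IC50 values result from fitting mP signal against log concentration by nonlinear regression.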

[2] = target: T2, Recombinant STAT6 protein (STAT6 (W123-T658)) (Homo sapiens, UniProt P42226); test: STAT6 Fluorescence Polarization (FP) Assay; format: binding; conditions: 45-minute incubation
T2 construct: Recombinant STAT6 protein (STAT6 (W123-T658))
T2 sequence (P42226 123-658): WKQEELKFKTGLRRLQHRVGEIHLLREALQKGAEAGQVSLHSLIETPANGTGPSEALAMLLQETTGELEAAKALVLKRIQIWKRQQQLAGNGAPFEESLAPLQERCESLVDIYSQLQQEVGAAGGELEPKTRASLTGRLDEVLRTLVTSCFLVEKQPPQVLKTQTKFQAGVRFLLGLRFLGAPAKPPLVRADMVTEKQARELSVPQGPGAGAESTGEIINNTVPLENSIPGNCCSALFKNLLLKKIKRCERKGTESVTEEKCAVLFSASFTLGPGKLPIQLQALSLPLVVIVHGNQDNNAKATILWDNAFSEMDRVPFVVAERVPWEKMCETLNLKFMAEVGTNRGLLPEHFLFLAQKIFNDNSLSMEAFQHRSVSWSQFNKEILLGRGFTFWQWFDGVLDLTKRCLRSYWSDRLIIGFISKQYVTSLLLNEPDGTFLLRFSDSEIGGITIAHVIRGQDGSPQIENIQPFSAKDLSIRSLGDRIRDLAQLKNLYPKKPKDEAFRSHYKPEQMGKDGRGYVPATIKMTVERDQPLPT
Summary of the method: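 Recombinant STAT6 (W123-T658) at 250 nM mixed with 2 nM 5-FAM phosphotyrosine peptide probe in HEPES pH 7.4 buffer with DTT, 1% DMSO final, added to serially diluted compounds. FP (mP) read after 45 min at room temperature; IC50 by nonlinear regression vs log concentration.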

[3] = STAT3 25 nM, read-out: STAT3 (FP assay IC50)
[4] = STAT6 250 nM, probe 5-FAM-ApYKPFQDLI-NH2 2 nM, read-out: STAT6 (FP assay IC50)
[5] = STAT3 (G127-I722) 25 nM, read-out: STAT3 (FP assay IC50 class)
[6] = STAT6 (W123-T658) 250 nM, probe 5-FAM-Ap[…]-NH2 2 nM, read-out: STAT6 (FP assay IC50 class)
[7] = STAT6 250 nM, probe 5-FAM-Ap[…]-NH2 2 nM, read-out: STAT6 (FP assay IC50)

T1 sequence (P40763 127-722): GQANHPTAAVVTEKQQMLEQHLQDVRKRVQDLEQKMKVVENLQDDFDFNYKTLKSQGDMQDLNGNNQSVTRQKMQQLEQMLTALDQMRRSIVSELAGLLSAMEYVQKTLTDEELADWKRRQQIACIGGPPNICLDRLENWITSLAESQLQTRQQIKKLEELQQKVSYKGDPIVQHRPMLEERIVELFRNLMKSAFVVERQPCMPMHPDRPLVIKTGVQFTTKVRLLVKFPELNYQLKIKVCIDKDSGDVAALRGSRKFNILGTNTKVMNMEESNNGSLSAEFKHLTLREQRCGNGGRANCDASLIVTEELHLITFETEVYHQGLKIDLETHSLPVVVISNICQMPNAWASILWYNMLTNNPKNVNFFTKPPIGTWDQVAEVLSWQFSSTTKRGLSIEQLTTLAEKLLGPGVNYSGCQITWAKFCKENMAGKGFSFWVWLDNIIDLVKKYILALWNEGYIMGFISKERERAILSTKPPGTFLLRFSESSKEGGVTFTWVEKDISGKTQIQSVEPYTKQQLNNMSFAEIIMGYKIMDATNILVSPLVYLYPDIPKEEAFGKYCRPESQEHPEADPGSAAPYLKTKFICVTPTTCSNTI

SMILES	IC50 [1, 3] [µM]	IC50 [1, 5] [µM]	IC50 [2, 6] [µM]	IC50 [2, 7] [µM]	IC50 [2, 4] [µM]
N#C[C@@H]1CN(C(=O)[C@@H]2CCC[C@@H]3CCC[C@H](NC(=O)c4cc5cc(C(F)(F)P(=O)(O)O)ccc5s4)C(=O)N32)C[C@H]1c1ccccc1 (single isomer, unassigned) [Compound 107, ((2-(((4S,7S,10aS)-4-((3S,4R or 3R,4S)-3-cyano-4-phenylpyrrolidine-1-carbonyl)-6-oxodecahydropyrido [1,2-a]azepin-7-yl)carbamoyl)benzo[b]thiophen-5-yl)difluoromethyl) phosphonic acid]	0.1 to 1				≤ 0.3
N#C[C@H]1CN(C(=O)[C@@H]2CC[C@@H]3CCCC[C@H](NC(=O)c4cc5cc(CP(=O)(O)O)ccc5s4)C(=O)N32)C[C@@H]1c1ccccc1 (single isomer, unassigned) [Compound 90, ((2-(((3S,6S,10aS)-3-((3R,4S or 3S,4R)-3-cyano-4-phenylpyrrolidine-1-carbonyl)-5-oxodecahydropyrrolo [1,2-a]azocin-6-yl)carbamoyl)benzo[b]thiophen-5-yl)methyl) phosphonic acid]	> 10				0.3 to 3
NC(=O)N1CC[C@@H](NC(=O)[C@@H]2CC[C@@H]3CCCC[C@H](NC(=O)c4cc5cc(C(F)P(=O)(O)O)ccc5s4)C(=O)N32)C1 (stereo partly drawn) [Compound 532, ((2-(((3S,6S,10aS)-3-(((R)-1-carbamoylpyrrolidin-3-yl)carbamoyl)-5-oxodecahydropyrrolo[1,2-a]azocin-6-yl)carbamoyl)benzo[b]thiophen-5-yl)fluoromethyl)phosphonic acid]		< 0.1	3 to 30		
O=C(N[C@H]1CCC[C@H]2CC[C@@H](C(=O)N3CC(c4cnccc4N4CC[C@@H]4C(F)F)C3)N2C1=O)c1cc2cc(CP(=O)(O)O)ccc2s1 [Compound 668, ((2-(((3S,6S,9aS)-3-(3-(4-((R)-2-(difluoromethyl)azetidin-1-yl)pyridin-3-yl)azetidine-1-carbonyl)-5-oxooctahydro-1H-pyrrolo[1,2-a]azepin-6-yl)carbamoyl)benzo [b]thiophen-5-yl)methyl) phosphonic acid]		< 0.1	3 to 30		
C/C1=C/C[C@H](NC(=O)c2cc3cc(CP(=O)(O)O)ccc3s2)C(=O)N2[C@H](CC[C@H]2C(=O)N2CC(c3cnccc3C)C2)C1 [Compound 642, ((2-(((3S,6S,10aR,Z)-9-methyl-3-(3-(4-methylpyridin-3-yl)azetidine-1-carbonyl)-5-oxo-1,2,3,5,6,7,10,10a-octahydropyrrolo[1,2-a]azocin-6-yl)carbamoyl)benzo [b]thiophen-5-yl)methyl) phosphonic acid]		0.1 to 1	3 to 30		
O=C(N[C@H]1CCCC[C@H]2CC[C@@H](C(=O)N3C(=O)N(c4cccnc4)C(=O)C34CC4)N2C1=O)c1cc2cc(C(F)P(=O)(O)O)ccc2s1 (stereo partly drawn) [Compound 900, ((2-(((3S,6S,10aS)-3-(5,7-dioxo-6-(pyridin-3-yl)-4,6-diazaspiro[2.4]heptane-4-carbonyl)-5-oxodecahydropyrrolo [1,2-a]azocin-6-yl)carbamoyl)benzo [b]thiophen-5-yl)fluoromethyl) phosphonic acid]		1 to 10	≤ 0.3		
Cc1nccc(F)c1C1CN(C(=O)[C@@H]2CC[C@@H]3CCC[C@H](NC(=O)c4cc5cc(CP(=O)(O)O)ccc5s4)C(=O)N32)C1 [Compound 580, ((2-(((3S,6S,9aS)-3-(3-(4-fluoro-2-methylpyridin-3-yl)azetidine-1-carbonyl)-5-oxooctahydro-1H-pyrrolo[1,2-a]azepin-6-yl)carbamoyl)benzo[b]thiophen-5-yl)methyl)phosphonic acid]		1 to 10	3 to 30		
COc1cc(CCN(C)C(=O)[C@@H]2CC[C@@H]3CCCC[C@H](NC(=O)c4cc5cc(C(F)(F)P(=O)(O)O)ccc5s4)C(=O)N32)ccn1 [Compound 47, (difluoro(2-(((3S,6S,10aS)-3-((2-(2-methoxypyridin-4-yl)ethyl)(methyl)carbamoyl)-5-oxodecahydropyrrolo [1,2-a]azocin-6-yl)carbamoyl)benzo[b]thiophen-5-yl)methyl) phosphonic acid]	1 to 10			0.3 to 3	
Cn1ccc([C@@H]2CN(C(=O)[C@@H]3CC[C@@H]4CCCC[C@H](NC(=O)c5cc6cc(C(F)P(=O)(O)O)ccc6s5)C(=O)N43)C[C@H]2C#N)cc1=O (single isomer, unassigned) [Compound 227]		0.1 to 1	0.3 to 3		
C[C@@]1(O)CC[C@H]2CC[C@@H](C(=O)N3CC(C(=O)N4CCOCC4)C3)N2C(=O)[C@@H](NC(=O)c2cc3cc(C(F)(F)P(=O)(O)O)ccc3s2)C1 [Compound 17, (difluoro(2-(((3S,6S,8R,10aR)-8-hydroxy-8-methyl-3-(3-(morpholine-4-carbonyl)azetidine-1-carbonyl)-5-oxodecahydropyrrolo [1,2-a]azocin-6-yl)carbamoyl)benzo[b]thiophen-5-yl)methyl) phosphonic acid]	< 0.1			3 to 30	

Now from value to molecule, other results behind:

IC50 [1, 3] [µM]	IC50 [1, 5] [µM]	IC50 [2, 6] [µM]	IC50 [2, 7] [µM]	SMILES	IC50 [2, 4] [µM]
	0.1 to 1	3 to 30		COC1(c2nncn2C)CN(C(=O)[C@@H]2CC[C@@H]3CCC[C@H](NC(=O)c4cc5cc(C(F)(F)P(=O)(O)O)ccc5s4)C(=O)N32)C1 [Compound 796, (difluoro(2-(((3S,6S,9aS)-3-(3-methoxy-3-(4-methyl-4H-1,2,4-triazol-3-yl)azetidine-1-carbonyl)-5-oxooctahydro-1H-pyrrolo[1,2-a]azepin-6-yl)carbamoyl)benzo [b]thiophen-5-yl)methyl) phosphonic acid]	
	1 to 10	0.3 to 3		Cn1cc(C2CN(C(=O)[C@@H]3CC[C@@H]4CCC[C@H](NC(=O)c5cc6cc(C(F)(F)P(=O)(O)O)ccc6s5)C(=O)N43)CCO2)cn1 (stereo partly drawn) [Compound 1123]	
	1 to 10	0.3 to 3		Cc1cc(C2CN(C(=O)[C@@H]3CC[C@@H]4CCCC[C@H](NC(=O)c5cc6cc(C(F)(F)P(=O)(O)O)ccc6s5)C(=O)N43)CC2C#N)cc(=O)[nH]1 (single isomer, unassigned) [Compound 876]	
0.1 to 1			> 30	O=C(N[C@H]1CCC[C@H]2CC[C@@H](C(=O)N3CC(c4cccnc4)C3)N2C1=O)c1cc2cc(CP(=O)(O)O)ccc2s1 [Compound 78, ((2-(((3S,6S,9aS)-5-oxo-3-(3-(pyridin-3-yl)azetidine-1-carbonyl)octahydro-1H-pyrrolo[1,2-a]azepin-6-yl)carbamoyl)benzo[b]thiophen-5-yl)methyl) phosphonic acid]	
	1 to 10	≤ 0.3		N#C[C@@H]1CN(C(=O)[C@@H]2CC[C@@H]3CCC[C@@H](C4CC4)[C@H](NC(=O)c4cc5cc(C(F)(F)P(=O)(O)O)ccc5s4)C(=O)N32)C[C@H]1c1ccccc1 (single isomer, unassigned) [Compound 234]	
	0.1 to 1	≤ 0.3		C[C@H]1C[C@H]2CC[C@@H](C(=O)N3C[C@@H](c4cccnc4)CC34CC4)N2C(=O)[C@@H](NC(=O)c2cc3cc([C@H](F)P(=O)(O)O)ccc3s2)C1 [Compound 834, ((R)-fluoro(2-(((3S,6S,8R,9aR)-8-methyl-5-oxo-3-((R)-6-(pyridin-3-yl)-4-azaspiro[2.4]heptane-4-carbonyl)octahydro-1H-pyrrolo[1,2-a]azepin-6-yl)carbamoyl)benzo [b]thiophen-5-yl)methyl) phosphonic acid]	
1 to 10			≤ 0.3	C[C@@H]1C[C@H](NC(=O)c2cc3cc(C(F)(F)P(=O)(O)O)ccc3s2)C(=O)N2[C@H](CC[C@H]2C(=O)N2CC[C@@H](c3ccccc3)C2)C[C@H]1O [Compound 100, (difluoro(2-(((3S,6S,8R,9R, 10aR)-9-hydroxy-8-methyl-5-oxo-3-((S)-3-phenylpyrrolidine-1-carbonyl)decahydropyrrolo [1,2-a]azocin-6-yl)carbamoyl)benzo[b]thiophen-5-yl)methyl) phosphonic acid]	
< 0.1			3 to 30	CS(=N)(=O)CC1CN(C(=O)[C@@H]2CC[C@@H]3CCC[C@H](NC(=O)c4cc5cc(C(F)(F)P(=O)(O)O)ccc5s4)C(=O)N32)C1 (stereo partly drawn) [Compound 32, (difluoro(2-(((3S,6S,9aS)-3-(3-((S-methyl-sulfonimidoyl)methyl)azetidine-1-carbonyl)-5-oxooctahydro-1H-pyrrolo[1,2-a]azepin-6-yl)carbamoyl)benzo[b]thiophen-5-yl)methyl) phosphonic acid]	
